Assay results taken from publication PMC12865225 (Clinical and Translational Science, 2026).
Read-outs that look alike come from different tables or passages of the source. Blank lines part the entries; values can stand above or below the compound they belong to.

Columns and labels:
[1] = target: T1, OATP2B1 (Homo sapiens, UniProt O94956); assay: OATP2B1 inhibition, rosuvastatin uptake into transporter-expressing HEK293 cells; assay type: cell-based; conditions: for Calculated R-value OATP2B1 (hepatic): R = 1 + (I in,max,u/IC50), FDA cut-off ≥ 1.1; for Calculated R-value OATP2B1 (intestinal): R = I gut/IC50, FDA cut-off ≥ 10
T1 construct: expressed in transfected cells; host or cells: HEK293 (recombinant baculovirus-mediated transduction)
T1 sequence (O94956 1-709): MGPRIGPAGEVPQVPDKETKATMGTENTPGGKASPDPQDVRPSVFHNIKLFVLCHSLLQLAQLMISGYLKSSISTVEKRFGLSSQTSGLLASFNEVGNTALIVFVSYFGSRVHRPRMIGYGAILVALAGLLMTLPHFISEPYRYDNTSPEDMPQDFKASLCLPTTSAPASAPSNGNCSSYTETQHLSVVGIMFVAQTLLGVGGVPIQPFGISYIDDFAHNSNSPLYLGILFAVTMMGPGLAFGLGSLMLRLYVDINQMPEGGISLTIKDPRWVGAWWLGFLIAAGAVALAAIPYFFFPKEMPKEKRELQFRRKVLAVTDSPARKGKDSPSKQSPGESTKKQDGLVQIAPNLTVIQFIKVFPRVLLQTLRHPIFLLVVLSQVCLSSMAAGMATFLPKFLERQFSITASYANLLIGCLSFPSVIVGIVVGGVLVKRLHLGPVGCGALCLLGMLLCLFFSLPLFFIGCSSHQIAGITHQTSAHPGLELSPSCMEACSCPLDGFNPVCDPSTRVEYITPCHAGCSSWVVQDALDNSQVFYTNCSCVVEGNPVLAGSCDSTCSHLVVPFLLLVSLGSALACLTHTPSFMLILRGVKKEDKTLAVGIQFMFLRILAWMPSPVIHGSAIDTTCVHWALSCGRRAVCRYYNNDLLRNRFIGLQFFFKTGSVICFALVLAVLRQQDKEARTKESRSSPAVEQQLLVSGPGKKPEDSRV
Description: (§1) The human transporters OATP1B1, OATP1B3, OATP2B1, and OAT1‐OAT4 and a negative control protein (enhanced yellow fluorescent protein, eYFP) were transiently expressed in human embryonic kidney 293 (HEK293) cells by recombinant baculovirus‐mediated transduction. Baculoviruses carrying human genes for the transporters were prepared as reported previously. HEK293 cells were cultured in DMEM containing 10% fetal bovine serum at 37°C and 5% CO2 and passaged two to three times per week. For the transport studies, 0.05 × 10^6 cells for 48‐well plates (OATPs) or 0.06 × 10^6 cells for 24‐well plates (OATs) were seeded onto cell‐culture treated well plates coated with poly‐D‐lysine. After 1 day, cells were transduced to produce recombinant proteins by changing media to DMEM containing 30 μL (48‐well plates) or 60 μL (24‐well plates) of recombinant baculovirus and 3 mM (OATs) or 5 mM (OATPs) sodium butyrate in a total media volume of 500 μL. The cells were cultured for a further 2 days before the transport assays.
(§2) For the transport studies, media were removed and cells were washed once with warm transport uptake buffer (TP‐buffer—pH 7.4 HBSS with 25 mM HEPES and 4 mM sodium bicarbonate). Each experiment included triplicate (OATP) or duplicate (OAT) samples for every test condition. The uptake was started by removing liquid from wells and applying warm TP‐buffer (200 μL for 24‐well plates or 125 μL for 48‐well plates) containing a test compound to cells. Transport assays were terminated after a pre‐specified incubation time (reported in figure legends) by removing substrate solution and washing cells three times with cold TP‐buffer (300 μL for 48‐well plates and 400 μL for 24‐well plates). For the liquid chromatography mass spectrometry (LC–MS) analysis, compounds were extracted from cells with 125 μL (48‐well plates) or 250 μL (24‐well plates) of an ultrapure‐water solution containing 75% methanol and 0.1% formic acid, shaking at 250 RPM for 30 min. […] Samples were transferred to well plates, centrifuged at 3000 g for 30 min, and transferred to a new well plate for the analysis.
In the OATP inhibition assays, inhibitors in warm TP‐buffer were directly applied to cells after media removal, followed by a 30‐min preincubation step in the presence of inhibitors. […] OAT1 and OAT3 cells were lysed with 200 μL of 1 M sodium hydroxide for 10 min, and 150 μL of these samples were transferred to a black well plate for fluorescein quantification. […]
For the inhibition data analysis, the average of measured concentrations in the control cells was subtracted from the average of measured concentrations in transporter‐expressing cells for each inhibitor concentration and then normalized to the vehicle sample that represents 100% transport activity. […]

[2] = cited from earlier work; for Total CL: mean value from IV studies
[3] = target: T1, OATP2B1; assay: Uptake transport assay in OATP2B1-expressing HEK293 cells; assay type: cell-based; conditions: for transport by OATP2B1: 2 and 50 μM, 10 min; for Vmax (pmol/106 cells/min) OATP2B1: uptake, 2 min
Description: as §1, §2
Equation (2) (the Michaelis–Menten equation) was fit to the transport kinetic assay data. […] (2) Uptake=Vmax×S/Km+S

[4] = 6.25 mg/kg PO, ref Jusko et al. 1975 11
[5] = 250 mg IV, ref DeSante et al. 1980 7
[6] = 250 mg PO, ref Sutherland et al. 1970 10
[7] = 500 mg PO, ref Beringer et al. 2008 12
[8] = 500 mg PO, ref Gravenkemper et al. 1965 13
[9] = 500 mg PO, ref Røder et al. 1995 14
[10] = 750 mg PO, ref Røder et al. 1995 14
[11] = 1000 mg PO, ref Gravenkemper et al. 1965 13
[12] = 1000 mg PO, ref Putnam et al. 2005 9
[13] = 1000 mg PO, ref Røder et al. 1995 14
[14] = 125 mg PO, ref Sutherland et al. 1970 10
[15] = 250 mg PO, ref Bodey et al. 1972 20
[16] = 500 mg IV, ref Landersdorfer et al. 2007 15
[17] = 500 mg IV, ref Landersdorfer et al. 2008 17
[18] = 500 mg PO, ref Bodey et al. 1972 20
[19] = 1000 mg IV, ref Adam et al. 1983 18
[20] = 1000 mg IV, ref Landersdorfer et al. 2007 15
[21] = 1000 mg IV, ref Landersdorfer et al. 2008 17
[22] = 1000 mg IV, ref Wise et al. 1980 19
[23] = 1000 mg PO MD (day 9), ref Iversen et al. 2023 22
[24] = 1000 mg PO MD (day 27), ref Iversen et al. 2023 22
[25] = 1000 mg PO SD, ref Iversen et al. 2023 22
[26] = 1000 mg PO, ref Everts et al. 2020 16
[27] = 1000 mg PO, ref Gardiner et al. 2018 21

- Calculated R-value OATP2B1 (hepatic) [1]: 1.2
- Calculated R-value OATP2B1 (intestinal) [1]: 240
- transport by OATP2B1 [3]: transported
- Vmax (pmol/106 cells/min) OATP2B1 [3]: 61.5 pmol/106 cells/min
SMILES: Cc1onc(-c2c(Cl)cccc2Cl)c1C(=O)N[C@@H]1C(=O)N2[C@@H]1SC(C)(C)[C@@H]2C(=O)O [Dicloxacillin]
- AUC (mg*h/l) Obs [2, 4]: 33.8 mg·h/L
- Cmax (mg/l) Obs [2, 4]: 18.4 mg/L
- AUC (mg*h/l) Obs [2, 5]: 23.8 mg·h/L
- Cmax (mg/l) Obs [2, 5]: 56.5 mg/L
- AUC (mg*h/l) Obs [2, 6]: 19.1 mg·h/L
- Cmax (mg/l) Obs [2, 6]: 11.0 mg/L
- AUC (mg*h/l) Obs [2, 7]: 36.6 mg·h/L
- Cmax (mg/l) Obs [2, 7]: 11.1 mg/L
- AUC (mg*h/l) Obs [2, 8]: 41.1 mg·h/L
- Cmax (mg/l) Obs [2, 8]: 17.4 mg/L
- AUC (mg*h/l) Obs [2, 9]: 30.8 mg·h/L
- Cmax (mg/l) Obs [2, 9]: 17.3 mg/L
- AUC (mg*h/l) Obs [2, 10]: 66.8 mg·h/L
- Cmax (mg/l) Obs [2, 10]: 34.4 mg/L
- AUC (mg*h/l) Obs ([2]; 1000 mg IV, ref Nauta and Mattie 1976 8): 114 mg·h/L
- AUC (mg*h/l) Obs [2, 11]: 72.4 mg·h/L
- Cmax (mg/l) Obs [2, 11]: 28.9 mg/L
- AUC (mg*h/l) Obs [2, 12]: 78.0 mg·h/L
- Cmax (mg/l) Obs [2, 12]: 31.4 mg/L
- AUC (mg*h/l) Obs [2, 13]: 82.5 mg·h/L
- Cmax (mg/l) Obs [2, 13]: 30.7 mg/L
- fraction absorbed, range reported ([2]; dicloxacillin capsules): 35 – 76%
- Total CL [2]: 8.885 L/h

- Calculated R-value OATP2B1 (hepatic) [1]: 1.2
- Calculated R-value OATP2B1 (intestinal) [1]: 137
- transport by OATP2B1 [3]: transported
- Vmax (pmol/106 cells/min) OATP2B1 [3]: 74.9 pmol/106 cells/min
SMILES: Cc1onc(-c2c(F)cccc2Cl)c1C(=O)N[C@@H]1C(=O)N2[C@@H]1SC(C)(C)[C@@H]2C(=O)O [Flucloxacillin]
- AUC (mg*h/l) Obs [2, 14]: 8.28 mg·h/L
- Cmax (mg/l) Obs [2, 14]: 5.8 mg/L
- AUC (mg*h/l) Obs [2, 15]: 14.6 mg·h/L
- Cmax (mg/l) Obs [2, 15]: 5.7 mg/L
- AUC (mg*h/l) Obs [2, 6]: 14.4 mg·h/L
- Cmax (mg/l) Obs [2, 6]: 11.0 mg/L
- AUC (mg*h/l) Obs [2, 16]: 60.9 mg·h/L
- Cmax (mg/l) Obs [2, 16]: 86.8 mg/L
- AUC (mg*h/l) Obs [2, 17]: 54.8 mg·h/L
- Cmax (mg/l) Obs [2, 17]: 87.7 mg/L
- AUC (mg*h/l) Obs [2, 18]: 29.1 mg·h/L
- Cmax (mg/l) Obs [2, 18]: 11.4 mg/L
- Cmax (mg/l) Obs ([2]; 500 mg PO, ref Sutherland et al. 1970 10): 14.7 mg/L
- AUC (mg*h/l) Obs [2, 10]: 67.8 mg·h/L
- Cmax (mg/l) Obs [2, 10]: 34.5 mg/L
- AUC (mg*h/l) Obs [2, 19]: 141 mg·h/L
- Cmax (mg/l) Obs [2, 19]: 236 mg/L
- AUC (mg*h/l) Obs [2, 20]: 122 mg·h/L
- Cmax (mg/l) Obs [2, 20]: 167 mg/L
- AUC (mg*h/l) Obs [2, 21]: 113 mg·h/L
- Cmax (mg/l) Obs [2, 21]: 173 mg/L
- AUC (mg*h/l) Obs [2, 22]: 73.6 mg·h/L
- Cmax (mg/l) Obs [2, 22]: 140 mg/L
- AUC (mg*h/l) Obs [2, 23]: 56 mg·h/L
- Cmax (mg/l) Obs [2, 23]: 20 mg/L
- AUC (mg*h/l) Obs [2, 24]: 64 mg·h/L
- Cmax (mg/l) Obs [2, 24]: 24 mg/L
- AUC (mg*h/l) Obs [2, 25]: 51 mg·h/L
- Cmax (mg/l) Obs [2, 25]: 21 mg/L
- AUC (mg*h/l) Obs [2, 26]: 82 mg·h/L
- Cmax (mg/l) Obs [2, 26]: 31 mg/L
- AUC (mg*h/l) Obs [2, 27]: 71.6 mg·h/L
- Cmax (mg/l) Obs [2, 27]: 27.4 mg/L
- ka reported range [2]: 0.17 to 18.2 h⁻¹
- CLR ([2]; mean from reported IV studies): 5.1 L/h
- Total CL [2]: 7.75 L/h
